Data from ChEMBL document CHEMBL2176907, “Identification of multiple 5-HT₄ partial agonist clinical candidates for the treatment of Alzheimer's disease” (J Med Chem, 2012).
pEC50, pKi: −log10 of the molar value. The source made the active and inactive calls. The rule behind the calls is not given here.

Experiments:
[1] = Clearance in iv dosed dog; format: ADME, organism-based, Canis lupus familiaris; conditions: in vivo
[2] = Ratio of free drug concentration in brain to free drug concentration in plasma in sc dosed Sprague-Dawley rat; format: ADME, organism-based; conditions: read-out: K(p,uu,brain)
MDR1 = experiment: in vitro; conditions: dog, MDCK-MDR1
Description: Efflux ratio of permeability from basal to apical to apical to basal side of MDCK cells expressing MDR1 at 2 uM after 5 hrs by transwell assay

[3] = target: T1, 5-hydroxytryptamine receptor 4 (Homo sapiens, UniProt Q13639); experiment: biochemical
Description: Displacement of [3H]GR113808 from human 5HT4B receptor expressed in HEK293 cells after 30 mins by liquid scintillation counting

[4] = target: T2, 5-hydroxytryptamine receptor 4 (Rattus norvegicus, UniProt Q62758)
Description: Agonist activity at rat 5HT4L receptor expressed in HEK293 cells assessed as increase in cAMP production after 30 mins by HTRF assay

Rattus norvegicus [5] = experiment: Displacement of [3H]SB207145 from 5HT4 receptor in sc dosed Sprague-Dawley rat striatal membrane incubated for 45 mins prior to [3H]SB207145-adminsitration measured after 15 mins; format: functional, organism-based; conditions: Striatum
[6] = target: T1, 5-hydroxytryptamine receptor 4; experiment: Agonist activity at human 5HT4D receptor expressed in HEK293 cells assessed as cAMP production after 30 mins by HTRF assay; format: functional, cell-based
[7] = Oral bioavailability in dog; format: ADME, organism-based, Canis lupus familiaris; conditions: in vivo
Rattus norvegicus [8] = experiment: Gastrointestinal toxicity in female Sprague-Dawley rat assessed as mucosal injury at 30 mg/kg administered as repeated dose for 7 days measured up to 14 days; format: organism-based; design: dose 30 mg/kg; conditions: in vivo
[9] = Apparent permeability from apical to basal side of RRCK cells at 2 uM after 2 hrs by transwell assay; format: ADME, cell-based, Canis lupus familiaris, MDCKII-LE; conditions: dog, MDCK
[10] = target: T1, 5-hydroxytryptamine receptor 4; experiment: biochemical; remark: listed apart in the source
Description: Displacement of [3H]GR113808 from human 5HT4D receptor expressed in HEK293 cells after 30 mins by liquid scintillation counting

[11] = target: T1, 5-hydroxytryptamine receptor 4
Description: Agonist activity at human 5HT4B receptor expressed in HEK293 cells assessed as increase in cAMP production after 30 mins by HTRF assay

Rattus norvegicus [12] = experiment: Gastrointestinal toxicity in male Sprague-Dawley rat assessed as reduction in body weight at 100 mg/kg administered as repeated dose for 7 days measured up to 14 days; format: organism-based; design: dose 100 mg/kg; conditions: in vivo
[13] = Intrinsic clearance in human liver microsomes; format: ADME, Microsome; conditions: read-out: CLH
[14] = target: T2, 5-hydroxytryptamine receptor 4; remark: listed apart in the source
Description: Displacement of [3H]GR113808 from 5HT4 receptor in rat striatal membrane after 30 mins by liquid scintillation counting

[15] = Intrinsic clearance in rat liver microsomes; format: ADME, Microsome; conditions: read-out: CLH
[16] = Clearance in iv dosed rat; format: ADME, organism-based; conditions: in vivo
[17] = target: T1, 5-hydroxytryptamine receptor 4; experiment: biochemical; remark: listed apart in the source
Description: Displacement of [3H]GR113808 from human 5HT4E receptor expressed in CHO cells after 30 mins by liquid scintillation counting

Canis familiaris [18] = experiment: Gastrointestinal toxicity in beagle dog assessed as emesis at 20 mg/kg administered as repeated dose for 7 days measured up to 14 days; format: organism-based, Canis lupus familiaris; design: dose 20 mg/kg; conditions: in vivo
[19] = target: T1, 5-hydroxytryptamine receptor 4; experiment: biochemical; remark: listed apart in the source
Description: Displacement of [3H]GR113808 from human 5HT4A receptor expressed in HEK293 cells after 30 mins by liquid scintillation counting

[20] = target: T2, 5-hydroxytryptamine receptor 4; remark: listed apart in the source
Description: Agonist activity at rat 5HT4S receptor expressed in HEK293 cells assessed as increase in cAMP production after 30 mins by HTRF assay

Rattus norvegicus [21] = experiment: Gastrointestinal toxicity in male Sprague-Dawley rat assessed as mucosal injury at 100 mg/kg administered as repeated dose for 7 days measured up to 14 days; format: organism-based; design: dose 100 mg/kg; conditions: in vivo
Canis familiaris [22] = experiment: Neurotoxicity in beagle dog assessed as convulsions at 30 mg/kg administered as repeated dose for 7 days measured up to 14 days; format: toxicity, organism-based, Canis lupus familiaris; design: dose 30 mg/kg; conditions: in vivo
Rattus norvegicus [23] = experiment: Gastrointestinal toxicity in Sprague-Dawley rat assessed as decrease in food intake administered as repeated dose for 7 days measured up to 14 days; format: organism-based; conditions: in vivo
[24] = Oral bioavailability in rat; format: ADME, organism-based; conditions: in vivo
[25] = target: T1, 5-hydroxytryptamine receptor 4; experiment: Agonist activity at human 5HT4D receptor expressed in HEK293 cells assessed as cAMP production after 30 mins by HTRF assay relative to 5HT; format: functional, cell-based
Rattus norvegicus [26] = experiment: Procognitive activity in Sprague-Dawley rat assessed as increase in acetylcholine level in prefrontal cortex at 5 mg/kg, sc after 3 hrs by brain microdialysis relative to control; format: functional, organism-based; design: dose 5 mg/kg
Canis familiaris [27] = experiment: Cardiotoxicity in beagle dog assessed as increase in systolic blood pressure at 0.1 mg/kg administered as repeated dose for 7 days measured up to 1 month; format: toxicity, organism-based, Canis lupus familiaris, Artery; design: dose 0.1 mg/kg; conditions: in vivo, 168 h
[28] = target: T1, 5-hydroxytryptamine receptor 4; remark: listed apart in the source
Description: Agonist activity at human 5HT4E receptor expressed in HEK293 cells assessed as increase in cAMP production after 30 mins by HTRF assay

[29] = Intrinsic clearance in dog liver microsomes; format: ADME, Canis lupus familiaris, Microsome; conditions: read-out: CLH
[30] = target: 5-hydroxytryptamine receptor 4 (Rattus norvegicus) (UniProt Q62758); experiment: Agonist activity at 5HT4 receptor in rat oesophagus assessed as reversal of carbamylcholine-induced contraction at 10 uM incubated at 7 mins post carbamylcholine-challenge measured after 30 mins relative to 5HT; format: functional
Rattus norvegicus [31] = experiment: Gastrointestinal toxicity in female Sprague-Dawley rat assessed as reduction in body weight at 30 mg/kg administered as repeated dose for 7 days measured up to 14 days; format: organism-based; design: dose 30 mg/kg; conditions: in vivo
Brain = experiment: Free AUC (0 to 4 hrs) in sc dosed Sprague-Dawley rat brain by LC-MS/MS analysis; format: ADME, organism-based; conditions: in vivo
Plasma = experiment: Free AUC (0 to 4 hrs) in sc dosed Sprague-Dawley rat plasma by LC-MS/MS analysis; format: ADME, organism-based; conditions: in vivo
[32] = target: T1, 5-hydroxytryptamine receptor 4; remark: listed apart in the source
Description: Agonist activity at human 5HT4A receptor expressed in HEK293 cells assessed as increase in cAMP production after 30 mins by HTRF assay

[33] = target: T2, 5-hydroxytryptamine receptor 4; remark: listed apart in the source
Description: Agonist activity at rat 5HT4E receptor expressed in HEK293 cells assessed as increase in cAMP production after 30 mins by HTRF assay

Canis familiaris [34] = experiment: Gastrointestinal toxicity in beagle dog assessed as decrease in food intake administered as repeated dose for 7 days measured up to 14 days; format: organism-based, Canis lupus familiaris; conditions: in vivo
Rattus norvegicus [35] = experiment: Receptor occupancy of 5HT4 receptor in Sprague-Dawley rat brain at 5 mg/kg, sc up to 4 hrs; format: functional; conditions: route subcutaneous
CYP2D6 = CYP2D6 (Homo sapiens, UniProt P10635); experiment: Inhibition of CYP2D6 in human liver microsomes using dextromethorphan as substrate at 3 uM; format: ADME, Microsome; conditions: probe dextromethorphan
Canis familiaris [36] = experiment: Gastrointestinal toxicity in beagle dog assessed as decrease in food intake administered as repeated dose for 7 days measured up to 1 month; format: organism-based, Canis lupus familiaris; conditions: in vivo, 168 h
Rattus norvegicus [37] = experiment: Gastrointestinal toxicity in male Sprague-Dawley rat assessed as reduction in body weight at 100 mg/kg administered as repeated dose for 7 days measured up to 1 month; format: organism-based; design: dose 100 mg/kg; conditions: in vivo, 168 h
[38] = AUC (0 to 4 hrs) in sc dosed Sprague-Dawley rat CSF by LC-MS/MS analysis; format: ADME, organism-based; design: time < 4 hr, route subcutaneous
Rattus norvegicus [39] = experiment: Receptor occupancy of 5HT4 receptor in Wistar rat at […], sc; conditions: route subcutaneous
Rattus norvegicus [40] = experiment: Receptor occupancy of 5HT4 receptor in Sprague-Dawley rat brain at 1 mg/kg, sc up to 4 hrs; format: functional; conditions: route subcutaneous
Canis familiaris [41] = experiment: Neurotoxicity in beagle dog assessed as convulsions at 30 mg/kg administered as repeated dose for 7 days measured up to 1 month; format: toxicity, organism-based, Canis lupus familiaris; design: dose 30 mg/kg; conditions: in vivo, 168 h
Canis familiaris [42] = experiment: Cardiotoxicity in beagle dog assessed as increase in systolic blood pressure at 10 mg/kg administered as repeated dose for 7 days measured up to 1 month; format: toxicity, organism-based, Canis lupus familiaris, Artery; design: dose 10 mg/kg; conditions: in vivo, 168 h
Rattus norvegicus [43] = experiment: Gastrointestinal toxicity in Sprague-Dawley rat assessed as decrease in food intake administered as repeated dose for 7 days measured up to 1 month; format: organism-based; conditions: in vivo, 168 h
Rattus norvegicus [44] = experiment: Neurotoxicity in Sprague-Dawley rat assessed as convulsions at 100 mg/kg administered as repeated dose for 7 days measured up to 1 month; format: toxicity, organism-based; design: dose 100 mg/kg; conditions: in vivo, 168 h
Rattus norvegicus [45] = experiment: Procognitive activity in Wistar rat assessed as reversal of scopolamine-induced learning deficit at […], sc administered 30 mins prior to scopolamine-challenge measured on acquisition days 3 and 4 by Morris water maze testing; format: functional, organism-based; design: dose 0.032 mg/kg
Rattus norvegicus [46] = experiment: Procognitive activity in Sprague-Dawley rat assessed as increase in acetylcholine level in prefrontal cortex at 1 mg/kg, sc after 3 hrs by brain microdialysis relative to control; format: functional, organism-based; design: dose 1 mg/kg
Canis familiaris [47] = experiment: Gastrointestinal toxicity in beagle dog assessed as emesis at 30 mg/kg administered as repeated dose for 7 days measured up to 1 month; format: organism-based, Canis lupus familiaris; design: dose 30 mg/kg; conditions: in vivo, 168 h

T2 sequence (Q62758 whole entry): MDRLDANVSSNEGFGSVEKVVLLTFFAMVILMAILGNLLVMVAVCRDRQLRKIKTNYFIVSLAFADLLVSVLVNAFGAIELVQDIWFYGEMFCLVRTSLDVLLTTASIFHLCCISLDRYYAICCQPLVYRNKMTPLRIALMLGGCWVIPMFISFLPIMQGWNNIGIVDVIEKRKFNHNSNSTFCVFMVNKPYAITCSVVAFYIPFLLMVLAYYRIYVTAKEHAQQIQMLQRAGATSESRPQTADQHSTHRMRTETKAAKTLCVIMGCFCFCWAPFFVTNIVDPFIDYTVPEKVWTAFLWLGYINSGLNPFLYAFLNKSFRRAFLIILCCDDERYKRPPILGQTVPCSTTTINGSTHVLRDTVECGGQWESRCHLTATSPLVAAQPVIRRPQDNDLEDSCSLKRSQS
Chain of CYP2D6 (P10635 whole entry): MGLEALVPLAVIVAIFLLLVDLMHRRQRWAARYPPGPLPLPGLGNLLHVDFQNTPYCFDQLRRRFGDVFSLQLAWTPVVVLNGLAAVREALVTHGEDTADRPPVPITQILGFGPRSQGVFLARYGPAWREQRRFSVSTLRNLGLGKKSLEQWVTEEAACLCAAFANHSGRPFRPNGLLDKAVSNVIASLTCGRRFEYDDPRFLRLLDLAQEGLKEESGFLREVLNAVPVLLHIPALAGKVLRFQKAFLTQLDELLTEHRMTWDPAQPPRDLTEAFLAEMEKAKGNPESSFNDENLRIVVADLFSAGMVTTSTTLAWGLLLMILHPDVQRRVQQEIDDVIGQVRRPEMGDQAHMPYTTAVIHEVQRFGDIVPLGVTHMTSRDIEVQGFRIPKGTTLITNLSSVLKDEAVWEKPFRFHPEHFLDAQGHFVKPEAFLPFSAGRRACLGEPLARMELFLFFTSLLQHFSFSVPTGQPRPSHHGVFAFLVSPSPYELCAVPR
T1 sequence (Q13639 whole entry): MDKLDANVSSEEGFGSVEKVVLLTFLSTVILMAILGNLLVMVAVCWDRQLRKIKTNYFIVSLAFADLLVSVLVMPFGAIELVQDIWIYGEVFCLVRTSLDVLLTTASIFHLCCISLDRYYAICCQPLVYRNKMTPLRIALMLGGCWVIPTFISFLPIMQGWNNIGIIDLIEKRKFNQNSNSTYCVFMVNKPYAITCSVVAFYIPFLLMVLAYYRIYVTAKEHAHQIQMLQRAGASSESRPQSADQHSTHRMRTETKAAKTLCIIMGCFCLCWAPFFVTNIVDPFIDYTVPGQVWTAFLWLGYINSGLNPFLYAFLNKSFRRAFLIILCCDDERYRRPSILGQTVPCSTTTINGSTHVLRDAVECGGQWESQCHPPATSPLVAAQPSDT
Chain of 5-hydroxytryptamine receptor 4 (Rattus norvegicus) (Q62758 whole entry): as the sequence (Q62758 whole entry) above

CC(C)n1c(=O)n(C(=O)NCC2CCN(CC3(O)CCOCC3)CC2)c2cc(F)ccc21
clearance [1]: 40 mL/min/kg
Kp uu [2]: 1.6
efflux ratio at 5 h, 2 µM (MDR1): 1.41
pKi [3]: 8.26
pEC50 [4]: 9.02
Activity (Rattus norvegicus [5]): Dose-dependent effect
pEC50 [6]: 9.05
bioavailability [7]: 100%
Activity (Rattus norvegicus [8]): Toxic
Papp A→B at 2 h, 2 µM [9]: 21.9 ×10⁻⁶ cm/s
pKi [10]: 8.77
pEC50 [11]: 8.92
Activity (Rattus norvegicus [12]): Toxic
CLint scaled [13]: 24.3 mL/min/kg
pKi [14]: 8.82
CLint scaled [15]: 45.2 mL/min/kg
clearance [16]: 12.6 mL/min/kg
pKi [17]: 8.31
Activity (Canis familiaris [18]): Toxic
pKi [19]: 8.36
pEC50 [20]: 9.05
Activity (Rattus norvegicus [21]): Toxic
Activity (Canis familiaris [22]): Toxic
Activity (Rattus norvegicus [23]): Toxic
bioavailability [24]: 40%
Emax [25]: 86%
Activity (Rattus norvegicus [26]): Active
Activity (Canis familiaris [27]): Toxic
pEC50 [28]: 9.01
CLint scaled [29]: < 5.6 mL/min/kg
Activity [30]: 70%
Activity (Rattus norvegicus [31]): Toxic
fAUC (Brain): 0.0443 µM·h
fAUC (Plasma): 0.0276 µM·h
pEC50 [32]: 9.42
pEC50 [33]: 8.80
Activity (Canis familiaris [34]): Toxic
Occ (Rattus norvegicus [35]): >90%

CC(C)(O)COc1cccc2onc(OCC3CCN(CC4(O)CCOCC4)CC3)c12
efflux ratio at 5 h, 2 µM (MDR1): 1.6
inhibition at 3 µM (CYP2D6): 21%
pEC50 [6]: 8.77
Papp A→B at 2 h, 2 µM [9]: 35 ×10⁻⁶ cm/s
pKi [10]: 8.44
CLint scaled [13]: 38 mL/min/kg
Emax [25]: 50%

O[C@@H]1CC[C@@H](Oc2cccc3onc(OCC4CCN(CC5(O)CCOCC5)CC4)c23)C1
efflux ratio at 5 h, 2 µM (MDR1): 2.2
inhibition at 3 µM (CYP2D6): 37%
pEC50 [6]: 9.40
Papp A→B at 2 h, 2 µM [9]: 15 ×10⁻⁶ cm/s
pKi [10]: 9.30
CLint scaled [13]: 56 mL/min/kg
Emax [25]: 28%

OC1(CN2CCC(COc3noc4cccc(O[C@@H]5CCOC5)c34)CC2)CCOCC1 [PF-04995274]
Activity (Canis familiaris [36]): Toxic
Activity (Rattus norvegicus [37]): Toxic
clearance [1]: 21.2 mL/min/kg
Kp uu [2]: 0.7
inhibition at 3 µM (CYP2D6): 13%
Activity (Rattus norvegicus [5]): Dose-dependent effect
AUC(0-t) at 4 h [38]: 0.519 µM·h
Occ (Rattus norvegicus [39]): >90%
Occ (Rattus norvegicus [40]): >90%
bioavailability [7]: 47%
Activity (Canis familiaris [41]): Toxic
Activity (Canis familiaris [42]): Toxic
Papp A→B at 2 h, 2 µM [9]: 30 ×10⁻⁶ cm/s
Activity (Rattus norvegicus [43]): Toxic
CLint scaled [13]: 33 mL/min/kg
CLint scaled [15]: 48.9 mL/min/kg
clearance [16]: 81.8 mL/min/kg
Activity (Rattus norvegicus [44]): Toxic
Activity (Rattus norvegicus [45]): Active
Activity (Rattus norvegicus [46]): Active
bioavailability [24]: 40%
CLint scaled [29]: 27.9 mL/min/kg
Activity (Canis familiaris [47]): Toxic
fAUC (Brain): 0.706 µM·h
fAUC (Plasma): 1.054 µM·h

CC(C)COc1cccc2onc(OCC3CCN(CC4(O)CCOCC4)CC3)c12
inhibition at 3 µM (CYP2D6): 54%
pEC50 [6]: 9.01
Papp A→B at 2 h, 2 µM [9]: 3.8 ×10⁻⁶ cm/s
pKi [10]: 9.44
CLint scaled [13]: 72 mL/min/kg
Emax [25]: 85%
